Results: patent publication US11154477B2, “Use of alkanolamine alkylamides as humectants” (Akzo Nobel Chemicals International B.V., priority 2016, dated 2021)

Legend:
[1] = Dynamic Vapor Sorption (DVS) measurement of water absorption by humectants; format: physicochemical; conditions: for Percentage of water absorbed based on weight of the tested compound: 25° C., equilibrium
Protocol: Dynamic Vapor Sorption (DVS) technique was used to measure the moisture intake of a specific compound at certain humidity level. A DVS Intrinsic instrument manufactured by Surface Measurement Systems UK Ltd. (London, United Kingdom) was used to measure DVS. The following measurement procedure was used to determine the water vapor absorption of a specific compound.
A uniform aqueous solution of a specific, target compound was made at 50% concentration. About 1.2 to 1.6 mg of the prepared aqueous solution was added to DVS instrument at zero tare balance. The temperature was then set at 25° C., and the measurement was performed at various humidity levels. The first measurement was performed at a humidity of 90% to ensure that the sample absorbs the highest level of water in order to minimize the mass transfer barrier during the evaporation process. The typical humidity measurements were then taken at 50%, 40%, 30%, 20%, 10%, and 0% humidity. The dynamics of water absorption was determined by the weight change per minute. If weight change per minute was less than 0.005% of the sample weight, it was deemed that water absorption had reached the equilibrium point. The equilibrium weight at 0% humidity is the sample weight by itself. Thus, the percentage of equilibrium water absorption at various humidity levels was calculated.
Using the above procedure, DVS was used to evaluate water absorption for DGA Acetamide as compared to hydroxyethyl urea and glycerol at different humidity levels.

[2] = system: skin (inner forearm of each panelist); test: Corneometer measurement of skin moisture after a single application of gel formulation; format: in vivo; conditions: 5 wt % gel, average of eight panelists
Protocol: To prepare a gel formulation, deionized water was added to a 4 oz. tall jar that was set up for mixing using an overhead mixer and a jiffy blade. The water was then mixed at a speed that created a good vortex that nearly reached the bottom of the jar (e.g., about 700 rpm). To this, Carbopol® 940 (cross-linked polyacrylate polymer available from Lubrizol, […], Ohio) was slowly added and mixed for at least 15 minutes until homogeneous. Triethanolamine (TEA) was then added and the mixing speed was adjusted overhead to about 200 rpm and continued mixing for about 10 minutes (e.g., product viscosity increased). To this mixture, 5 wt % of the sample compound in its pure form (or hydroxyethyl urea or glycerol control) was added followed by 0.5 wt % GlydantTM PlusTM (a preservative available from Lonza, Basel, Switzerland) and the remaining, balance water. Mixing was continued at 200 rpm for about 15-20 minutes. The mixture was then removed from the mixer and the final pH was measured. […] Moisture levels were measured using a Corneometer® CM 825 (available from CK Industries) prior to and at various time intervals after the sample application at a temperature of 22° C. and relative humidity of 50%, wherein the corneometer values recorded are the difference between the corneometer reading at a given time and the initial corneometer reading at 0 hours, which is set at zero. […]

SMILES	Percentage of water absorbed based on weight of the tested compound ([1]; 10% rel. humidity)	Percentage of water absorbed based on weight of the tested compound ([1]; 20% rel. humidity)	Percentage of water absorbed based on weight of the tested compound ([1]; 30% rel. humidity)	Percentage of water absorbed based on weight of the tested compound ([1]; 40% rel. humidity)	Percentage of water absorbed based on weight of the tested compound ([1]; 50% rel. humidity)	water absorption capability (comparison in words) ([1]; 50% relative humidity)	water absorption capability (comparison in words) ([1]; relative humidity levels of 10%, 20% 30%, and 40%)	humectance performance (corneometer) versus glycerol ([2]; at 24 hours)	corneometer readings versus control (water) formulation ([2]; entire time range tested (24 hours), 22° C., 50% relative humidity)
CC(=O)NCCOCCO [DGA acetamide, N-acetyl diglycolamine]	2.6%	5.9%	9.9%	15.3%	26.9%	on par with glycerol	on par with that for hydroxyethyl urea	same as glycerol	superior to the control formulation
OCC(O)CO [Glycerol, glycerol]	4.6%	8.6%	15.9%	23.3%	27.7%	–	–	–	–
NC(=O)NCCO [Hydroxyethyl urea, hydroxyethyl urea]	2.4%	5.4%	9.2%	14.1%	19.7%	–	–	–	–
